Experimental data published in ChEMBL document CHEMBL1201862, “PubChem BioAssay data set” (2004).
Calls of active or inactive are those of the source. Cut-off read from the data, not from the text of the source: actives have a measured IC50 and inactives only a lower limit.

Molecular target: Envelope glycoprotein gp160 (Human immunodeficiency virus 1, UniProt Q6QLK5)
Test: inhibitors of HIV fusion peptide binding, primary screen, biochemical, uHTS, fluorescence dequenching (AID 1986)

Envelope glycoprotein gp160, sequence (Q6QLK5 whole entry, the tested form may be a part): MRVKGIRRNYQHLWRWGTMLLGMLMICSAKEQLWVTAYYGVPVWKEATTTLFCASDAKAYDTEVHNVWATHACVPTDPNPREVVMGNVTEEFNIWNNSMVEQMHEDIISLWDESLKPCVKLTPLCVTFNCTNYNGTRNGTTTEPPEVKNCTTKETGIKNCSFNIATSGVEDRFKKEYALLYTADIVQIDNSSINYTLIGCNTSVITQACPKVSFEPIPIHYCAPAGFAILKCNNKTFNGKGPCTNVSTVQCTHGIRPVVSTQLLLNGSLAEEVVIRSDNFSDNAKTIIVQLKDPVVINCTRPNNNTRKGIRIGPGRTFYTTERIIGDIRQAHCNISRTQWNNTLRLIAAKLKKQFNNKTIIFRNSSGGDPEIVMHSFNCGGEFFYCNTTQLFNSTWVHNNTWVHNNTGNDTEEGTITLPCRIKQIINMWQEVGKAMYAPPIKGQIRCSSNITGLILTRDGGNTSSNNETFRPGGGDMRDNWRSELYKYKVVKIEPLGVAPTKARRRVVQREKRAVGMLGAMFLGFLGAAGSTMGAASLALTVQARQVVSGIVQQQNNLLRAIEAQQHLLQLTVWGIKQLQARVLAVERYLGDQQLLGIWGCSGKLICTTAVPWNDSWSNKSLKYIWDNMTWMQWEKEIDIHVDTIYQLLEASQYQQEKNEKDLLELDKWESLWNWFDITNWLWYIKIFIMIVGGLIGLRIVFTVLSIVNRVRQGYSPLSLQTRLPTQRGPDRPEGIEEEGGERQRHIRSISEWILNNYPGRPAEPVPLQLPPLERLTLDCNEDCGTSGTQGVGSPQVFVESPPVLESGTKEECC

CCc1nnc(NS(=O)(=O)c2ccc(N/C=C(\C=O)c3nc4cc(Cl)ccc4o3)cc2)s1
IC50: 19.7 µM (active)

O=C(Nc1ccc(Br)cc1C(=O)O)c1ccc2c(c1)C(=O)N(Cc1ccccc1)C2=O
IC50: 13.5 µM (active)

Cc1ccc(S(=O)(=O)NC2=NC(=O)/C(=C/c3cc([N+](=O)[O-])ccc3O)S2)cc1
IC50: 13.5 µM (active)

Cc1cc(/C=c2\sc3nc4ccccc4n3c2=O)c(C)n1-c1ccc(C(=O)O)cc1
IC50: 25.8 µM (active)
